{"source": "patent US8680059B2", "about": "“Oligopeptide acetate and formulations thereof” (Biotempt B.V., priority 1998, dated 2014)", "key": {"[1]": {"system": "mice, 25 minutes renal ischemia/reperfusion", "assay": "Mouse renal ischemia reperfusion test (mortality, BUN/serum urea)", "format": "in vivo", "set-up": "BUN, mean / Urea level: unit not given here", "protocol": "SEQ ID NO:2 was tested and compared with PBS (control) in a double blind animal study for the peptide's relative ability to aid recovery in a mouse renal ischemia reperfusion test. In this test, the mice were anesthetized, and one kidney from each mouse was removed. The other kidney was tied off for 25 minutes, and the serum urea levels were allowed to increase. Both before and after tying off, the peptide was administered to thirty (30) different mice (5 mg oligopeptide/kg body mass intravenously), after which, the mortality of the mice was determined for each oligopeptide as well as was the BUN concentration at two hours, 24 hours and 72 hours.\nUnder inhalation anesthesia, the left kidney with its artery and vein was isolated and occluded for 25 minutes using a microvascular clamp. During surgery animals were placed on a heating path to maintain body temperature at 37° C. Five minutes before placing the clamp, and 5 minutes before releasing the clamp, 5 mg/kg of peptide, dissolved in 0.1 mL of sterile saline, was administered intravenously. After reperfusion of the left kidney the right kidney was removed. Kidney function was assessed by measuring blood urea nitrogen before clamping, and at 2, 24, and 72 hours after reperfusion.\nTo determine dose-response relationships SEQ ID NO:2, was tested in a dose-response manner in the mice test as described above. Peptides were tested at 0.3, 1, 3, 10 and 30 mg/kg dosages given as described in Example I. Serum urea levels are presented in Table 3."}, "[2]": {"assay": "Phase I human trial: plasma pharmacokinetics of EA-230", "format": "in vivo", "details": "for tmax: 15-min infusion; for AUC(0-t) / Cmax: plasma, iv", "text": "(§1) Part 1: A Phase I, double blind, randomized, single dose, placebo controlled, dose escalation study with 4 groups of 8 subjects (Groups 1-4). In each group 6 subjects were randomized to active medication and 2 to placebo. The first group received a single intravenous injection of EA-230 or placebo. After all subjects had completed Day 7 assessments, the safety review board decided on continuation of the study until the maximum tolerated dose had been assessed or the highest dose. Placebo subjects were pooled for analysis.\n(§2) Part 2: A Phase I, double blind, randomized, single dose, placebo controlled study. The second part consisted of 1 group of 12 subjects (Group 5). All twelve subjects received LPS (4 ng/kg E. coli EC6) as a 2-minute injection, 30 minutes prior to EA-230 administration. […] Cytokines profiles were assessed to establish the effect of EA-230 on inflammatory parameters.\nPlasma concentration time profiles of EA-230 were analyzed. Pharmacokinetic parameters AUC, clearance, volume of distribution and elimination half-life were obtained for EA-230.\nPK samples were collected pre-dose and from 5 minutes to 4 hours after the start of study drug administration."}, "[3]": {"system": "healthy male subjects", "assay": "Phase I human trial: safety", "format": "in vivo", "text": "as §1, §2\nAdverse events (AEs), vital signs, ECG, hematology, clinical chemistry, and urinalysis.\nIncidence of treatment emergent AEs and treatment emergent treatment related AEs were summarized. Hematological, biochemical, urinalysis parameters, vital signs and their changes from baseline were summarized over time using n, mean, standard deviation, median and range."}, "[4]": {"system": "BALB/c mice injected i.p. with LPS (E. coli 026:B6)", "assay": "LPS-induced septic shock (endotoxin model) in BALB/c mice", "format": "in vivo, mouse", "set-up": "key to Sickness score of individual mouse: 0: No abnormalities.; 1: Percolated fur, but no detectable behavior differences compared to normal mice.; 2: Percolated fur, huddle reflex, responds to stimuli (such as tap on cage), just as active during handling as healthy mouse.; 3: Slower response to tap on cage, passive or docile when handled, but still curious when alone in a new setting.; 4: Lack of curiosity, little or no response to stimuli, quite immobile.; 5: Labored breathing, inability or slow to self-right after being rolled onto back (moribund, sacrificed).; Dead", "details": "for Survival %: group of 6, 48 hrs", "protocol": "Mice used in sepsis or septic shock experiments: Female BALB/c mice of 8-12 weeks of age were used for all experiments. The animals were bred in our facility under specific pathogen-free conditions according to the protocols described in the Report of European Laboratory Animal Science Associations (FELASA) Working group on Animal Health (Laboratory Animals 28: 1-24, 1994).\nInjection protocols: For the endotoxin model, BALB/c mice were injected i.p. with 150-300 μg LPS (E. coli 026:B6; Difco Lab., Detroit, Mich., USA). Control groups were treated with PBS i.p. only. To test the effect of peptides, they were dissolved in PBS and injected i.p. at predetermined points in time after LPS treatment.\nMice were scored for sickness severity using the following measurement scheme: • 0 No abnormalities. • 1 Percolated fur, but no detectable behavior differences compared to normal mice. • 2 Percolated fur, huddle reflex, responds to stimuli (such as tap on cage), just as active during handling as healthy mouse. • 3 Slower response to tap on cage, passive or docile when handled, but still curious when alone in a new setting. • 4 Lack of curiosity, little or no response to stimuli, quite immobile. • 5 Labored breathing, inability or slow to self-right after being rolled onto back (moribund, sacrificed). • D Dead […]\nA comparative trial was set up to compare peptide MTR and SEQ ID NO:2. The comparative trial comprised 6 groups of 6 animals; two groups (1A and 1B) receiving placebo (PBS), one group (2) peptide MTR (source Pepscan, Lelystad, NL), one group (3) receiving peptide MTR (source Ansynth), one group (4) receiving peptide SEQ ID NO:2 (source Pepscan) and one group peptide SEQ ID NO:2 (source Ansynth). Peptide/placebo in these groups was administered 2 hours after LPS. LPS (source) was used at 10-11 mg/kg. Sickness scores were done at 0, 2, 22 26 42 and 48 hours after LPS injection."}, "[5]": {"details": "1 mg/kg, 1 mg/kg i.v. 2-min infusion, N = 6, arithmetic mean ± SD"}, "[6]": {"details": "3 mg/kg, 3 mg/kg i.v. 2-min infusion, N = 6, arithmetic mean ± SD"}, "[7]": {"details": "10 mg/kg, 10 mg/kg i.v. 15-min infusion, N = 6, arithmetic mean ± SD"}, "[8]": {"details": "10 mg/kg, Part 2, LPS + 10 mg/kg i.v. 15-min infusion, arithmetic mean ± SD"}, "[9]": {"details": "30 mg/kg, 30 mg/kg i.v. 15-min infusion, N = 6, arithmetic mean ± SD"}}, "note": "Where “and” joins values, the source holds several entries; their conditions need not be identical. Equal entries are not always repeated. Peptide text beside a SMILES is read from it."}
{"molecule": "AQG", "values": [{"measurement": "Urea level", "setting": "[1]; 0.3 mg/kg, 24 h", "result": 38.4}, {"measurement": "Urea level", "setting": "[1]; 0.3 mg/kg, 72 h", "result": 30.4}, {"measurement": "Urea level", "setting": "[1]; 1.0 mg/kg, 24 h", "result": 48.4}, {"measurement": "Urea level", "setting": "[1]; 1.0 mg/kg, 72 h", "result": 38.4}, {"measurement": "Urea level", "setting": "[1]; 3.0 mg/kg, 24 h", "result": 39.3}, {"measurement": "Urea level", "setting": "[1]; 3.0 mg/kg, 72 h", "result": 40.3}, {"measurement": "Urea level", "setting": "[1]; 10.0 mg/kg, 24 h", "result": 46.8}, {"measurement": "Urea level", "setting": "[1]; 10.0 mg/kg, 72 h", "result": 25.8}, {"measurement": "Urea level", "setting": "[1]; 30.0 mg/kg, 24 h", "result": 52.8}, {"measurement": "Urea level", "setting": "[1]; 30.0 mg/kg, 72 h", "result": 58.9}]}
{"molecule": "CC(C)[C@H](NC(=O)CNC(=O)[C@H](CCC(N)=O)NC(=O)[C@H](C)N)C(=O)O", "note": "[EA-230, H-Ala-Gln-Gly-Val-OH.xAcOH] (H-AQGV-OH)", "values": [{"measurement": "tmax", "setting": "[2]; 10 mg/kg EA-230 alone", "result": "5 minutes before the end of infusion"}, {"measurement": "time by which average plasma concentrations were below LOQ", "setting": "[2]; 1-mg/kg dose", "result": "≤ 15", "unit": "min"}, {"measurement": "time by which average plasma concentrations were below LOQ", "setting": "[2]; 30-mg/kg dose, after dosing", "result": "≤ 120", "unit": "min"}, {"measurement": "tmax", "setting": "[2]; most subjects, 10 mg/kg EA-230 with LPS challenge", "result": "10 minutes before the end of infusion"}, {"measurement": "AUC(0-t)", "setting": "[2]; [5]", "result": 2.5, "unit": "ng·h/mL"}, {"measurement": "Cmax", "setting": "[2]; [5]", "result": 32.5, "unit": "ng/mL"}, {"measurement": "AUC(0-t)", "setting": "[2]; [6]", "result": 11.8, "unit": "ng·h/mL"}, {"measurement": "Cmax", "setting": "[2]; [6]", "result": "132 ± 76.4", "unit": "ng/mL"}, {"measurement": "AUC(0-t)", "setting": "[2]; [7]", "result": 217, "unit": "ng·h/mL"}, {"measurement": "Cmax", "setting": "[2]; [7]", "result": "1600 ± 1130", "unit": "ng/mL"}, {"measurement": "AUC(0-t)", "setting": "[2]; [8]", "result": 303, "unit": "ng·h/mL"}, {"measurement": "Cmax", "setting": "[2]; [8]", "result": "1710 ± 1330", "unit": "ng/mL"}, {"measurement": "AUC(0-t)", "setting": "[2]; [9]", "result": 595, "unit": "ng·h/mL"}, {"measurement": "Cmax", "setting": "[2]; [9]", "result": "3220 ± 1080", "unit": "ng/mL"}, {"measurement": "elimination from plasma", "setting": "[2]; single i.v. dose 1-30 mg/kg", "result": "rapidly eliminated"}, {"measurement": "AE occurrence, placebo vs active subjects", "setting": "[3]", "result": "No difference in AE occurrence"}, {"measurement": "safety and tolerability of a single dose", "setting": "[3]; 1 mg/kg to 30 mg/kg i.v.", "result": "safe and well tolerated"}, {"measurement": "number or intensity of AEs with the dose", "setting": "[3]; escalating dose part 1-30 mg/kg", "result": "No increase in the number or intensity of AEs"}, {"measurement": "QTc", "setting": "[3]; whole study", "result": "No abnormal QTc"}, {"measurement": "serious adverse events (SAE)", "setting": "[3]; whole study", "result": "No SAE occurred"}]}
{"molecule": "MTR", "values": [{"measurement": "Sickness score of individual mouse", "setting": "[4]; source Ansynth (#Ansynth 12/46) 2 hours after LPS 10-11 mg/kg, 0 hrs (before peptide)", "result": 0}, {"measurement": "Sickness score of individual mouse", "setting": "[4]; source Ansynth (#Ansynth 12/46) 2 hours after LPS 10-11 mg/kg, 2 hrs (at peptide administration)", "result": 2}, {"measurement": "Sickness score of individual mouse", "setting": "[4]; source Ansynth (#Ansynth 12/46) 2 hours after LPS 10-11 mg/kg, 22 hrs", "result": "2 (4×) and 4 and 3"}, {"measurement": "Sickness score of individual mouse", "setting": "[4]; source Ansynth (#Ansynth 12/46) 2 hours after LPS 10-11 mg/kg, 26 hrs", "result": "1 and 2 (2×) and 5 and 4 and 3"}, {"measurement": "Sickness score of individual mouse", "setting": "[4]; source Ansynth (#Ansynth 12/46) 2 hours after LPS 10-11 mg/kg, 42 hrs", "result": "1 and 2 (2×) and dead and 4 and 5"}, {"measurement": "Sickness score of individual mouse", "setting": "[4]; source Ansynth (#Ansynth 12/46) 2 hours after LPS 10-11 mg/kg, 48 hrs", "result": "1 (2×) and dead (2×) and 2"}, {"measurement": "Survival %", "setting": "[4]; source Ansynth (#Ansynth 12/46) 2 hours after LPS 10-11 mg/kg", "result": 50, "unit": "%"}, {"measurement": "Sickness score of individual mouse", "setting": "[4]; source Pepscan (#970/#971) 5 mg/kg 2 hours after LPS 10-11 mg/kg, 0 hrs (before peptide)", "result": 0}, {"measurement": "Sickness score of individual mouse", "setting": "[4]; source Pepscan (#970/#971) 5 mg/kg 2 hours after LPS 10-11 mg/kg, 2 hrs (at peptide administration)", "result": 2}, {"measurement": "Sickness score of individual mouse", "setting": "[4]; source Pepscan (#970/#971) 5 mg/kg 2 hours after LPS 10-11 mg/kg, 22 hrs", "result": "dead and 3 and 2 (3×) and 4"}, {"measurement": "Sickness score of individual mouse", "setting": "[4]; source Pepscan (#970/#971) 5 mg/kg 2 hours after LPS 10-11 mg/kg, 26 hrs", "result": "3 and 2 (3×) and 5"}, {"measurement": "Sickness score of individual mouse", "setting": "[4]; source Pepscan (#970/#971) 5 mg/kg 2 hours after LPS 10-11 mg/kg, 42 hrs", "result": "5 and 2 (2×) and 4 and dead"}, {"measurement": "Sickness score of individual mouse", "setting": "[4]; source Pepscan (#970/#971) 5 mg/kg 2 hours after LPS 10-11 mg/kg, 48 hrs", "result": "dead (2×) and 2 (2×)"}, {"measurement": "Survival %", "setting": "[4]; source Pepscan (#970/#971) 5 mg/kg 2 hours after LPS 10-11 mg/kg", "result": 33, "unit": "%"}]}
